Laboratory results: US5962314A, “Calcium receptor-active molecules” (priority 1997, dated 1999)
Entries after “also recorded” stand apart in the source; their conditions may differ.

Experiments:
serum ionized calcium [1] = assay: serum ionized Ca2+ in rats; assay type: in vivo, rat; conditions: NPS R-467 single oral dose, 3 hours
Method: Compounds shown to activate the bovine parathyroid cell calcium receptor in vitro were tested for hypocalcemic activity in vivo. Male Sprague-Dawley rats (200 g) were maintained on a low calcium diet for one week prior to receiving test substance or vehicle as control. Blood was collected from the tail vein three hours after the intra-peritoneal administration of NPS 467. […] Serum total calcium, albumin and phosphate were measured by techniques well known in the art.
Rats (male, Sprague-Dawley, 250-300 g) were fed standard rat chow and fasted overnight prior to the experiment. NPS R-467 was suspended in corn oil and administered as a single oral dose through a gavage needle. Three hours later a sample of blood was taken from the tail vein and assessed for ionized Ca^2+ levels.

serum ionized calcium [2] = assay: serum ionized Ca2+ in parathyroidectomized rats; assay type: in vivo, rat; conditions: NPS R-467 10 mg/kg i.p., 6 hours; NPS R-568 oral
Description: To determine the primary target tissue upon which NPS R-467 acts to cause a hypocalcemic response, the parathyroid glands in rats were surgically removed. Animals receiving a total parathyroidectomy become hypocalcemic and are largely dependent upon dietary calcium to maintain serum Ca^2+ homeostasis.

[3] = target: T1, human parathyroid cell calcium receptor (Homo sapiens, UniProt P41180); assay: Cl- current in Xenopus oocytes expressing human parathyroid cell calcium receptor; assay type: cell-based
T1 construct: T7 cRNA injected into Xenopus oocytes
T1 sequence (P41180 with tags, fused parts or gaps INS536PLTFVLSVLQ/Q926R/E1011Q): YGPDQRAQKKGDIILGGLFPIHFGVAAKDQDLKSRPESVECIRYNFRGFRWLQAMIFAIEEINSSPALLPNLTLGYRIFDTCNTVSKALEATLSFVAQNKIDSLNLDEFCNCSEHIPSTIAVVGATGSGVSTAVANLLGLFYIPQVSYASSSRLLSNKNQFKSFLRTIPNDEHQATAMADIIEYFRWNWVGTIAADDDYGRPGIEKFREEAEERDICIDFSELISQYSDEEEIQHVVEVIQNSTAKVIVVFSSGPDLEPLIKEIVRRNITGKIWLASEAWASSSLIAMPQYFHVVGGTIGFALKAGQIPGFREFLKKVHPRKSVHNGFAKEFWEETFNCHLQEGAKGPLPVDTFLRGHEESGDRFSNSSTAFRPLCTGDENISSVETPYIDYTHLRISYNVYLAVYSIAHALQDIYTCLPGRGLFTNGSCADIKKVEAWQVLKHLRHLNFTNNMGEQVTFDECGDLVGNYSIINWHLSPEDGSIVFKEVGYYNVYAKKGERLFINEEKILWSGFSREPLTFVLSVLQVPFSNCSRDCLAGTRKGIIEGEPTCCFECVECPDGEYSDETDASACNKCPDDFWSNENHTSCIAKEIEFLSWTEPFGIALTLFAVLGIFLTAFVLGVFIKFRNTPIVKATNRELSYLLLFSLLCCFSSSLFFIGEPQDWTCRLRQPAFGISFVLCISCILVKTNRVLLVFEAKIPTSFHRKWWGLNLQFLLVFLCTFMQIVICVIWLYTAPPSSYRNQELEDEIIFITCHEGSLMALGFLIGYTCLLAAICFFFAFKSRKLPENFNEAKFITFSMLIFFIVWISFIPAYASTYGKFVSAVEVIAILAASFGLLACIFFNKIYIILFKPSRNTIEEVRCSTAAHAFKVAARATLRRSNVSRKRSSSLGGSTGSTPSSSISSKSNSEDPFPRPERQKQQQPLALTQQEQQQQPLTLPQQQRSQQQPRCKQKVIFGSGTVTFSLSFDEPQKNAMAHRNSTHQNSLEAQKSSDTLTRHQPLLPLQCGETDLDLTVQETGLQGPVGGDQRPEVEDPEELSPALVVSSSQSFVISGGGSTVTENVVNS
Method: Representative cDNA inserts for both size classes were subcloned into the plasmid vector pBluescript SK. Linearization followed by in vitro transcription using T7 RNA polymerase produced cRNA transcripts. The cRNA transcripts were injected into Xenopus oocytes (150 ng/μl RNA; 50 nl/oocyte) for functional analysis. Following incubation periods of 2-4 days, the oocytes were assayed for the presence of functional calcium receptors. Both clone types gave rise to functional calcium receptors as assessed by the stimulation of calcium-activated chloride currents upon addition of appropriate calcium receptor agonists. […] Thus, both clones encode a functional, human parathyroid cell calcium receptor.
Xenopus oocytes were injected with pHuPCaR 5.2, the 5.2 Kb cDNA encoding a parathyroid cell calcium receptor derived from a human parathyroid cell adenoma. (See Example 27.) After two to three days, Cl^- currents were measured in the oocytes using a two-electrode voltage clamp.

[4] = system: parathyroid cell calcium receptor; assay: Cl- current in Xenopus oocytes injected with bovine parathyroid cell mRNA; assay type: cell-based; conditions: 30 μM; oocytes injected with parathyroid cell mRNA
Method: Following incubation, an oocyte was placed into a 100-μl plastic chamber and superfused with MBS at a flow rate of 0.5 ml/min using a peristaltic pump. Test molecules or inorganic polycations were added by rapidly moving the tubing into different buffers. Recording and current-passing electrodes were constructed from thin-wall capillary tubing pulled to a resistance of 1-3 Mohms and filled with 3 M KCl. […] Currents were recorded directly onto a strip chart recorder.

[5] = system: human parathyroid calcium receptor; assay: intracellular calcium in HEK293 cells stably transfected with human calcium receptor; assay type: cell-based; conditions: Ca2+ 10 mM; Mg2+ 20 mM; HuPCaR 5.2
Method: Different cells were tested for response to pure stereoisomers and racemic mixtures. […] Intracellular Ca^2+ was monitored using a fluorimeter. Each point on the graph represents the peak response (highest concentration of intracellular calcium achieved) to the addition of the indicated concentration of the indicated compound.
Cells obtained from the pool of hygromycin selected HEK293 cells transfected with Cep4B containing the HuPCaR 5.2 insert were plated on collagen coated Aklar squares which had been placed into individual wells of 12-well tissue culture plates. Two to six days later, medium was removed and the cells washed with balanced salt solution and 1 ml of buffer containing 1 μM fura2-AM, 1 mM CaCl2 and 0.1% BSA and 1 mM CaCl2. Measurements of fluorescence in response to calcium receptor agonists were performed at 37° C. in a spectrofluorimeter using excitation and emission wavelengths of 340 and 510 nm, respectively. For signal calibration, Fmax was determined after addition of ionomycin (40 μM) and the apparent Fmin was determined by addition of 0.3 M EGTA, 2.5 M Tris-HCl; pH 10.
Additional clonal isolates of HEK 293 cells transfected with pHuPCaR4.0 sequence were obtained. These were tested for responsiveness to calcimimetics as described above except that the cells were tested while in suspension. Similar positive results were obtained (FIG. 28b).

C-cell calcium receptor = target: T2, C-cell calcium receptor (Rattus norvegicus, UniProt P48442); assay type: cell-based; conditions: Table 6; rMTC 6-23 cells, fura-2
T2 construct: Neoplastic C-cells derived from a rat medullary thyroid carcinoma (rMTC 6-23); host or cells: rMTC 6-23 cells
T2 sequence (P48442 20-1079): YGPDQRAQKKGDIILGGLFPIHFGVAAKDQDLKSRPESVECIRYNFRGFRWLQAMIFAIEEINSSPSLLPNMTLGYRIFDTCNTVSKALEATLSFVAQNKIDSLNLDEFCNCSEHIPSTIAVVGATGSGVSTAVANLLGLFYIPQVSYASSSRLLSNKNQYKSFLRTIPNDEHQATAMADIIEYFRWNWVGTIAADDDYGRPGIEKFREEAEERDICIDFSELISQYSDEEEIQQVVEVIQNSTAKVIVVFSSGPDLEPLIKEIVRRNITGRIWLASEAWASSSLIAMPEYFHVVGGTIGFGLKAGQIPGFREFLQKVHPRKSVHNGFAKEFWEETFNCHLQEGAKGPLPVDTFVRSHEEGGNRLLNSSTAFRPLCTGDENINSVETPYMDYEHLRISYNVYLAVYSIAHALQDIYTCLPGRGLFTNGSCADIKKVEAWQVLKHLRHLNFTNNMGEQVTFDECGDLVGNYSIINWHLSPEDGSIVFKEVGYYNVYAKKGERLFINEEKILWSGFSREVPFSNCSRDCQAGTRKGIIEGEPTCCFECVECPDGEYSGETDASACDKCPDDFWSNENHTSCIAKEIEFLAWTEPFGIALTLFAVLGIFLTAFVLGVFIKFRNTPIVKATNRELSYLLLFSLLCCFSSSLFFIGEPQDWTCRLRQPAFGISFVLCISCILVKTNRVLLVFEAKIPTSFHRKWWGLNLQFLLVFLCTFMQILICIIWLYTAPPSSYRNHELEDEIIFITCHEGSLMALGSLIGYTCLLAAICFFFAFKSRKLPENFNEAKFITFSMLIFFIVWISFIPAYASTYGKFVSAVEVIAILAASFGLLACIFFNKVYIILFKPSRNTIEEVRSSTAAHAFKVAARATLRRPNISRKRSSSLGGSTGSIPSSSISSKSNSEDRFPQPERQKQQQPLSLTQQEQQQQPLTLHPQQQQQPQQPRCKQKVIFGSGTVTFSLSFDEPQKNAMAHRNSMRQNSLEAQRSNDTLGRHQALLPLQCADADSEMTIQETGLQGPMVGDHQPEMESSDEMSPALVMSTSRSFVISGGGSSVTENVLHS
Description: To assess the effects of molecular polycations on C-cells, a neoplastic cell line, derived from a rat medullary thyroid carcinoma (rMTC 6-23 cells) was used.

Which results are given for `COc1cccc([C@@H](C)NCCCc2ccccc2)c1` [NPS R-467, (R)-(+)-N-(3-phenylpropyl)-α-methyl-3-methoxybenzylamine]?
effect on serum ionized Ca2+, oral (serum ionized calcium [1]): lowers serum ionized calcium; also recorded: dose-dependent reduction in serum levels of ionized Ca^2+; effect on serum ionized Ca2+ in parathyroidectomized rats (serum ionized calcium [2]): did not cause any change in serum ionized Ca^2+; activation of oocyte-expressed receptor [3]: activated the oocyte-expressed receptor at about the same concentrations; effect on Cl- current [4]: rapid increase in Cl^-; increase in intracellular calcium [5]: Robust increases in intracellular calcium; EC50 (C-cell calcium receptor): 2.2 µM
